The source of these data is patent US8450527B2, “Amine derivative compounds for treating ophthalmic diseases and disorders” (Acucela Inc., priority 2007, dated 2013).

Each structure is given as a SMILES string. Structures can show the parent of a compound that is named as a salt.

The first series has as its target T1, visual cycle isomerase (Bos taurus, UniProt Q28175).
T1 construct: Bovine Retinal Pigment Epithelium (RPE) microsome membranes were the source of a visual cycle isomerase; from tissue; host or cells: bovine retinal pigment epithelium microsome membranes; CRALBP made in E. coli
T1 sequence (Q28175 2-533 limits assumed): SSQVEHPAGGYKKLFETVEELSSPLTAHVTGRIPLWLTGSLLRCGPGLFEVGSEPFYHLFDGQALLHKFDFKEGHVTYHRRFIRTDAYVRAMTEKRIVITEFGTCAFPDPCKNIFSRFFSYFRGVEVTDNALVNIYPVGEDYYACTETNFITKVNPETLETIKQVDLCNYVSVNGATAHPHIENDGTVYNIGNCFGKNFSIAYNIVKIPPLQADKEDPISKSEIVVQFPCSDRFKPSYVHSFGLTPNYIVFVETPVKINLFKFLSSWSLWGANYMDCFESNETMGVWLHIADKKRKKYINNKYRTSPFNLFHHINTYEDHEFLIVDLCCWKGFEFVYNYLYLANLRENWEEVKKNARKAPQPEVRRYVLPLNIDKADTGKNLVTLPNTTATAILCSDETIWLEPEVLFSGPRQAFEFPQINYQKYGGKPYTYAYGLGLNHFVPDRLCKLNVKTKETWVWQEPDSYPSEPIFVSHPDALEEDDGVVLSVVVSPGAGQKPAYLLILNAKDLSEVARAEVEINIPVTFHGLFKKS
The series is described as follows: In vitro isomerase inhibition assay, bovine RPE microsome membranes. The format is biochemical. The settings on record: inhibition of 11-cis retinol formation; values given as ranges. On the procedure: The capability of amine derivative compounds to inhibit the activity of a visual cycle isomerase was determined
Isomerase inhibition reactions were performed essentially as described (Stecher et al., J. Biol. Chem. 274:8577-85 (1999); see also Golczak et al., Proc. Natl. Acad. Sci. USA 102:8162-67 (2005)). Bovine Retinal Pigment Epithelium (RPE) microsome membranes were the source of a visual cycle isomerase.
Bovine RPE microsome membrane extracts were prepared according to methods described (Golczak et al., Proc. Natl. Acad. Sci. USA 102:8162-67 (2005)) and stored at −80° C. Crude RPE microsome extracts were thawed in a 37° C. water bath, and then immediately placed on ice. 50 ml crude RPE microsomes were placed into a 50 ml Teflon-glass homogenizer (Fisher Scientific, catalog no. 0841416M) on ice, powered by a hand-held DeWalt drill, and homogenized ten times upand down on ice under maximum speed. This process was repeated until the crude RPE microsome solution was homogenized. The homogenate was then subjected to centrifugation (50.2 Ti rotor (Beckman, Fullerton, Calif.), 13,000 RPM; 15360 Rcf) for 15 minutes at 4° C. The supernatant was collected and subjected to centrifugation at 42,000 RPM (160,000 Rcf; 50.2 Ti rotor) for 1 hour at 4° C. The supernatant was removed, and the pellets were suspended in 12 ml (final volume) cold 10 mM MOPS buffer, pH 7.0. The resuspended RPE membranes in 5 ml aliquots were homogenized in a glass-to-glass homogenizer (Fisher Scientific, catalog no.K885500-0021) to high homogeneity. Protein concentration was quantified using the BCA protein assay according to the manufacturer's protocol (Pierce, Rockford, Ill.). The homogenized RPE preparations were stored at −80° C.
Recombinant human apo cellular retinaldehyde-binding protein (CRALBP) was cloned and expressed according to standard methods in the molecular biology art (see Crabb et al., Protein Science 7:746-57 (1998); Crabb et al., J. Biol. Chem. 263:18688-92 (1988)). Briefly, total RNA was prepared from confluent ARPE^19 cells (American Type Culture Collection, Manassas, Va.), cDNA was synthesized using an oligo(dT)12-18 primer, and then DNA encoding CRALBP was amplified by two sequential polymerase chain reactions (see Crabb et al., J. Biol. Chem. 263:18688-92 (1988); Intres, et al., J. Biol. Chem. 269:25411-18 (1994); GenBank Accession No. L34219.1). The PCR product was sub-cloned into pTrcHis2-TOPO TA vector according to the manufacturer's protocol (Invitrogen Inc., Carlsbad, Calif.; catalog no. K4400-01), and then the sequence was confirmed according to standard nucleotide sequencing techniques. Recombinant 6×His-tagged human CRALBP was expressed in One Shot TOP 10 chemically competent E. coli cells (Invitrogen), and the recombinant polypeptide was isolated from E. coli cell lysates by nickel affinity chromatography using nickel (Ni) Sepharose XK16-20 columns for HPLC (Amersham Bioscience, Pittsburgh, Pa.; catalog no.17-5268-O2). The purified 6×His-tagged human CRALBP was dialyzed against 10 mM bis-tris-Propane (BTP) and analyzed by SDS-PAGE. The molecular weight of the recombinant human CRALBP was approximately 39 kDal.
Amine derivative compounds and control compounds were reconstituted in ethanol to 0.1 M. Ten-fold serial dilutions (10^−2, 10^−3, 10^−4, 10^−5, 10^−6 M) in ethanol of each compound were prepared for analysis in the isomerase assay.
The isomerase assay was performed in 10 mM bis-tris-propane (BTP) buffer, pH 7.5, 0.5% BSA (diluted in BTP buffer), 1 mM sodium pyrophosphate, 20 μM all-trans retinol (in ethanol), and 6 μM apo-CRALBP. The test compounds (2 μl) (final 1/15 dilution of serial dilution stocks) were added to the above reaction mixture to which RPE microsomes were added. The same volume of ethanol was added to the control reaction (absence of test compound). Bovine RPE microsomes (9 μl) (see above) were then added, and the mixtures transferred to 37° C. to initiate the reaction (total volume=150 μl). […]
Broadly, the IC50 is the concentration that inhibits the measured activity by half. Consider `Cc1cccc(C)c1CCc1cccc(CCCN)c1` [Example 1, 3-(3-(2,6-dimethylphenethyl)phenyl)propan-1-amine], for which the IC50 is 1 to 10 µM. `CCC(O)(CC)CCc1cccc(CCCN)c1` [Example 2, 1-(3-(3-aminopropyl)phenyl)-3-ethylpentan-3-ol]: the IC50 is no more than 1 µM. The same measure, in the same setting: as for `CC(C)(O)CCc1cccc(CCCN)c1` [Example 4, 4-(3-(3-Aminopropyl)phenyl)-2-methylbutan-2-ol], the figure is 1 to 10 µM; as for `COCCCc1cccc(CCCN)c1` [Example 5, 3-(3-(3-Methoxypropyl)phenyl)propan-1-amine], 1 to 10 µM; as for `NCCCc1cccc(CCCO)c1` [Example 6, 3-(3-(3-aminopropyl)phenyl)propan-1-ol], 10 to 100 µM. On to `CCCC(O)CCc1cccc(CCCN)c1` (stereo not shown) [Example 8, 1-(3-(3-aminopropyl)phenyl)hexan-3-ol], for which the IC50 is 1 to 10 µM. In turn, `NCCOc1cccc(CCCCCCO)c1` [Example 13, 6-(3-(2-aminoethoxy)phenyl)hexan-1-ol] showed an IC50 of no more than 1 µM. In turn, `NCCOc1cccc(CCCC2CCCC2)c1` [Example 14, 2-(3-(3-cyclopentylpropyl)phenoxy)ethanamine] came in with an IC50 of no more than 1 µM. For the compound `NCCC(O)c1cccc(CCCc2ccccc2)c1` (stereo not shown) [Example 18, 3-amino-1-(3-(3-phenylpropyl)phenyl)propan-1-ol], the IC50 is no more than 1 µM. Still for that read-out and setting: the value for `NCCCc1cccc(CCc2ccc3ccccc3c2)c1` [Example 21, 3-(3-(2-(naphthalen-2-yl)ethyl)phenyl)propan-1-amine] was 10 to 100 µM; that for `NCCCc1cccc(CCc2ccccc2)c1` [Example 22, 3-(3-phenethylphenyl)propan-1-amine] was 1 to 10 µM.

The compound `NCCCc1cccc(CCCCO)c1` [Example 23, 4-(3-(3-aminopropyl)phenyl)butan-1-ol] showed a half-inhibitory concentration (IC50) of 10 to 100 µM. The compound `NCCCc1cccc(CCC2CCCC2)c1` [Example 24, 3-(3-(2-cyclopentylethyl)phenyl)propan-1-amine] gave an IC50 of no more than 1 µM.

In turn, `NCCCc1cccc(CCC2CCCCC2)c1` [Example 25, 3-(3-(2-cyclohexylethyl)phenyl)propan-1-amine] displayed an IC50 of no more than 1 µM. `NCCCc1cccc(CCCc2ccccc2)c1` [Example 26, 3-(3-(3-phenylpropyl)phenyl)propan-1-amine] came in with an IC50 of no more than 1 µM. The compound `CCCCCCc1cccc(CCCN)c1` [Example 28, 3-(3-hexylphenyl)propan-1-amine] returned an IC50 of no more than 1 µM. As for `NCCCc1cccc(CCCCCCO)c1` [Example 30, 6-(3-(3-aminopropyl)phenyl)hexan-1-ol], the IC50 was no more than 1 µM. `Cc1ccccc1CCc1cccc(CCCN)c1` [Example 31, 3-(3-(2-methylphenethyl)phenyl)propan-1-amine]: the IC50 was 1 to 10 µM. On the same count and under the same terms, the value for `NCCCc1cccc(CCc2cccc(-c3ccccc3)c2)c1` [Example 32, 3-(3-(2-(Biphenyl-3-yl)ethyl)phenyl)propan-1-amine] was 10 to 100 µM; that for `COCCCCCCc1cccc(CCCN)c1` [Example 33, 3-(3-(6-methoxyhexyl)phenyl)propan-1-amine] was no more than 1 µM. The compound `CCCCC(CCCC)c1cccc(CCCN)c1` [Example 34] gave an IC50 of 1 to 10 µM.

Turning to `NCCOc1cccc(CCc2cccnc2)c1` [Example 36, 2-(3-(2-(pyridin-3-yl)ethyl)phenoxy)ethanamine], the IC50 was 1 to 10 µM. For the compound `NCCOc1cccc(CCc2ccccn2)c1` [Example 37, 2-(3-(2-(pyridin-2-yl)ethyl)phenoxy)ethanamine], the IC50 was in the range of 1 to 10 µM.

Regarding `NCCOc1cccc(CCc2cccs2)c1` [Example 38, 2-(3-(2-(thiophen-2-yl)ethyl)phenoxy)ethanamine], the IC50 is no more than 1 µM.

Turning to `Cc1cccc(C)c1NC(=O)c1cccc(CCCN)c1` [Example 166, 3-(3-aminopropyl)-N-(2,6-dimethylphenyl)benzamide], the IC50 was 100 to 1000 µM.

Another series relates to retinoid nuclear receptors (RAR and RxR). Kind of series: Retinoid nuclear receptor activity.
Conditions: not given
As to `C/C(=C\c1ccc(C(=O)O)cc1)c1ccc2c(c1)C(C)(C)CCC2(C)C` [TTNPB, E-4-[2-(5,6,7,8-tetrahydro-5,5,8,8-tetramethyl-2-naphthylenyl)-1-propenyl]benzoic acid, reference compound], the “effects on retinoid nuclear receptors (RAR and RxR)” value was “activated”. Turning to `CC1=C(/C=C/C(C)=C/C=C/C(C)=C/C(=O)O)C(C)(C)CCC1` [at-RA, All-trans-retinoic acid, reference compound], the “effects on retinoid nuclear receptors (RAR and RxR)” value was “activated”.

Tested on in another series: not given
Test: not given
Conditions: not given
What is called melting point is the temperature, or range, at which the solid turns liquid. Turning to `Cc1cccc(C)c1CCc1cccc(CCCN)c1` (as salt: hydrochloride) [Example 1, 3-(3-(2,6-dimethylphenethyl)phenyl)propan-1-amine], the melting point lay in the range of 106 to 108 °C.
